In patent EP0499581B1, “Stabilized polymer composition” (Ciba Specialty Chemicals Holding Inc., priority 1991, dated 1992):

Tests used:
Assay type in all cases: physicochemical
[1] = Yellowing (ASTM D 1925) after UV exposure in Weather-O-meter WRC 600, ABS/SAN/polycarbonate blend (Example 1); details: Weather-O-meter WRC 600, 2 mm plates
Experimental: Dieses Copolymer wird in Pulverform mit derselben Menge von Styrolacrylnitril-copolymer (Suspension SAN, Ube Cycon) und der doppelten Menge von pulverförmigem Polycarbonat (PC 135, General Electric), mit gegebenenfalls weiteren Additiven, wie z.B. einem UV-Absorber, in einem Rhönrad vermischt. Die Mischung wird in einem Zweischnecken-Extruder (Temperatur-Zyklus: 165°C, 250°C, 275°C, 275°C, 270°C; Umdrehungen/Minute: 45) hergestellt.
(§1) Die erhaltenen Mischungen werden in einer Heizpresse bei 200°C zu 2 mm starken Platten gepresst. Aus den Platten werden Prüfkörper von 40 x 40 x 2 mm ausgeschnitten. Diese werden in einem Weather-O-meter® WRC 600 mit UV-Licht belichtet. In regelmässigen Abständen werden Proben entnommen und deren Vergilbung gemäss ASTM D 1925 gemessen.
Die mit der Belichtungszeit einhergehende Vergilbung, ausgedrückt in ΔYI (YI = Yellowness Index; ΔYI = Unterschied in YI-Wert zwischen unbelichteter und entsprechender belichteter Probe) und nach der angegebenen Methode ermittelt, ist in der Tabelle 1 wiedergegeben.

[2] = Yellowing (ASTM D 1925) after oven ageing, ABS/PBT blend (Example 3)
Experimental: Beispiel 3: Das ABS-Copolymer Granulat gemäss Beispiel 2 wird mit derselben Menge Polybutylenterephtahlat, (PBT CRASTIN® S 600, Ciba-Geigy) vermischt. Das Polymerblend wird in einem Zweischnecken-Extruder (Temperatur-Zyklus: 210°C/230°C/ 235°C/ 240°C) hergestellt. Proben von 12,7 x 60,0 x 2,0 mm werden in einer Arburg-Spritzgussanlage gespritzt bei einer maximalen Verarbeitungstemperatur von 260°C. Diese Plättchen werden in einem Ofen bei 200°C und bei 160°C gealtert. In regelmässigen Abständen werden die Proben entnommen und deren Vergilbung gemäss ASTM D 1925 gemessen.

[3] = Yellowing (ASTM D 1925) after UV exposure in Weather-Ometer WRC 600, ABS/SAN/polycarbonate blend (Example 2); details: Weather-Ometer WRC 600, 2 mm plates
Experimental: (§2) Beispiel 2: Das ABS-Copolymer gemäss Beispiel 1 wird in Pulverform mit derselben Menge von Styrolacrylnitril-Copolymer (Suspension SAN, Kostil, Montedipe), mit gegebenenfalls weiteren Additiven, wie z.B. einem UV-Absorber (Tinuvin® 234, Ciba-Geigy AG) und einem Phosphit (Irgafos® 168, Ciba-Geigy AG), in einem Rhönrad vermischt. Die Mischung wird in einem Zweischnecken-Extruder (Temperatur-Zyklus : 210°C/ 210°C/ 215°C/ 220°C) verarbeitet und granuliert.
(§3) Das erhaltene ABS-Granulat wird mit derselben Menge von Polycarbonat-Granulat (PC Calibre®, Dow) vermischt. Das Polymerblend wird in einem Zweischnecken-Extruder (Temperatur Zyklus : 240°C/ 240°C/ 250°C) hergestellt.
as §1, with “Mischungen (Blends)” for “Mischungen”, “Diese Plättchen” for “Diese”, “Weather-Ometer®” for “Weather-O-meter®”, “Vergilbung (oder Yellowness Index)” for “Vergilbung”, “gemäss Methode” for “gemäss”
Die mit der Belichtungszeit einhergehende Vergilbung is in der Tabelle 2 wiedergegeben.

[4] = Impact bending strength (ASTM D 4508-85) after UV exposure in Xenotest 450, ABS/SAN/polycarbonate blend (Example 2); parameters: key to Schlagbiegefestigkeit in kJ/m^2 nach 200 Stunden in Xenotest 450: KB = Kein Bruch; details: energy required to break
Experimental: as §2, §3
Weitere Prüfkörper von 12,7 x 60,0 x 2,0 mm werden in einem Xenotest 450 mit UV-Licht belichtet. In regelmässigen Abständern werden Proben entnommen und deren Schlagbiegefestigkeit gemäss Methode ASTM D 4508-85 gemessen. Dabei erfolgt der Pendelschlag auf die belichtete Seite der Probe.
In Tabelle 3 ist die für den Bruch der Probe erforderliche Energie angegeben. Je höher dieser Wert ist, desto höher ist die Schlagbiegefestigkeit der Probe. Bei ungeschädigten Proben erfolgt kein Bruch.

Structure (SMILES): CC(C)(c1ccccc1)c1cc(-n2nc3ccccc3n2)c(O)c(C(C)(C)c2ccccc2)c1 [0,3 % UV- Absorber *]
- Δ YI nach Belichtungszeit von 250 h ([1]; 250 h UV): -7,0
- Δ YI nach Belichtungszeit von 500 h ([1]; 500 h UV): -3,0
- Δ YI nach Belichtungszeit von 1000 h ([1]; 1000 h UV): 7,5
- Δ YI nach Belichtungszeit von 1250 h ([1]; 1250 h UV): 12,1
- Δ YI nach Belichtungszeit von 1500 h ([1]; 1500 h UV): 14,9

Structure (SMILES): CC(C)(c1ccccc1)c1cc(-n2nc3ccccc3n2)c(O)c(C(C)(C)c2ccccc2)c1 [0,50 % TINUVIN® 234]
- Δ YI nach Ofenalterung bei 160°C nach 60 min ([2]; oven 160°C, 60 min): 4,7
- Δ YI nach Ofenalterung bei 160°C nach 90 min ([2]; oven 160°C, 90 min): 10,8
- Δ YI nach Ofenalterung bei 160°C nach 120 min ([2]; oven 160°C, 120 min): 11,6
- Δ YI nach Ofenalterung bei 160°C nach 160 min ([2]; oven 160°C, 160 min): 20,4
- Δ YI nach Ofenalterung bei 160°C nach 840 min ([2]; oven 160°C, 840 min): 56,3
- Δ YI nach Ofenalterung bei 200°C nach 10 min ([2]; oven 200°C, 10 min): 6,0
- Δ YI nach Ofenalterung bei 200°C nach 20 min ([2]; oven 200°C, 20 min): 16,4
- Δ YI nach Ofenalterung bei 200°C nach 40 min ([2]; oven 200°C, 40 min): 33,1
- Δ YI nach Ofenalterung bei 200°C nach 60 min ([2]; oven 200°C, 60 min): 43,9
- Δ YI nach Ofenalterung bei 200°C nach 90 min ([2]; oven 200°C, 90 min): 55,3
- Δ YI nach Belichtungszeit von 500 h ([3]; 500 h UV): -7
- Δ YI nach Belichtungszeit von 1000 h ([3]; 1000 h UV): 1,1
- Δ (YI) nach Belichtungszeit von 2000 h ([3]; 2000 h UV): 16,1
- Δ (YI) nach Belichtungszeit von 3000 h ([3]; 3000 h UV): 23,4
- Δ (YI) nach Belichtungszeit von 4000 h ([3]; 4000 h UV): 23,9
- Schlagbiegefestigkeit in kJ/m^2 nach 200 Stunden in Xenotest 450 ([4]; 200 h Xenotest 450): KB
- Schlagbiegefestigkeit in kJ/m^2 nach 300 Stunden in Xenotest 450 ([4]; 300 h Xenotest 450): 15±2 kJ/m^2
- Schlagbiegefestigkeit in kJ/m^2 nach 500 Stunden in Xenotest 450 ([4]; 500 h Xenotest 450): 13±1 kJ/m^2
- Schlagbiegefestigkeit in kJ/m^2 nach 1000 Stunden in Xenotest 450 ([4]; 1000 h Xenotest 450): 11±1 kJ/m^2
- Schlagbiegefestigkeit in kJ/m^2 nach 1500 Stunden in Xenotest 450 ([4]; 1500 h Xenotest 450): 11±1 kJ/m^2
